Each structure is given as a SMILES string. A value given as a limit tells only on which side of the number the result lay.

From ChEMBL document CHEMBL1138896, “2,3,7-Trisubstituted pyrazolo[1,5-d][1,2,4]triazines: functionally selective GABAA alpha3-subtype agonists” (Bioorg Med Chem Lett, 2006) come the findings set out here.

Data set [1] addresses T1, GABA-A receptor; alpha-3/beta-3/gamma-2 (Homo sapiens, UniProt P18507+P28472+P34903).
T1 sequence (P18507 whole entry): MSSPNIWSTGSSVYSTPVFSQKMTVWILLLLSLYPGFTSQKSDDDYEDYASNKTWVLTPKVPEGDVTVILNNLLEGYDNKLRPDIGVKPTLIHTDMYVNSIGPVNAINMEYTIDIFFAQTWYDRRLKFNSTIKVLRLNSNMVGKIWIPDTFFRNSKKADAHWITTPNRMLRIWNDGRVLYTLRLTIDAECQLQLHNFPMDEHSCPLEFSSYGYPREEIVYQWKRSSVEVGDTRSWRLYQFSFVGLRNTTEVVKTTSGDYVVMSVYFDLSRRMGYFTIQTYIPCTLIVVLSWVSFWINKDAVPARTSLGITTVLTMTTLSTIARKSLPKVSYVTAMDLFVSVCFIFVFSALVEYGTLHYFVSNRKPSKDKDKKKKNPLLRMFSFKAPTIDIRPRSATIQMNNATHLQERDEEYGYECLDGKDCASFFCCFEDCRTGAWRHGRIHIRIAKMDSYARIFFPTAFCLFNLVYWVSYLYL
T1 sequence (P28472 whole entry): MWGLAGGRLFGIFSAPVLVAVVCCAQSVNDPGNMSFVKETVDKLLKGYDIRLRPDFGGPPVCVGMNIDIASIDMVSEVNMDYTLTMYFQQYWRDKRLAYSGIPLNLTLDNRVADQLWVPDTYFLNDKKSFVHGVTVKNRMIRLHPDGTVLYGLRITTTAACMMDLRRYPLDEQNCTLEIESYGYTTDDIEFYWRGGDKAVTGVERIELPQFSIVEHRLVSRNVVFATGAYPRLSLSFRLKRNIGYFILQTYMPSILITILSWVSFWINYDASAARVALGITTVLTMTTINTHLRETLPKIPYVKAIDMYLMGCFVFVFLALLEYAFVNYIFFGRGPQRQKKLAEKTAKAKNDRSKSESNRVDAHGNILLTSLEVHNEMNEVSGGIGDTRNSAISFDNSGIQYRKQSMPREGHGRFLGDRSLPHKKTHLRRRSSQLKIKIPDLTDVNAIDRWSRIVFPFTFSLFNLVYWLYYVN
T1 sequence (P34903 whole entry): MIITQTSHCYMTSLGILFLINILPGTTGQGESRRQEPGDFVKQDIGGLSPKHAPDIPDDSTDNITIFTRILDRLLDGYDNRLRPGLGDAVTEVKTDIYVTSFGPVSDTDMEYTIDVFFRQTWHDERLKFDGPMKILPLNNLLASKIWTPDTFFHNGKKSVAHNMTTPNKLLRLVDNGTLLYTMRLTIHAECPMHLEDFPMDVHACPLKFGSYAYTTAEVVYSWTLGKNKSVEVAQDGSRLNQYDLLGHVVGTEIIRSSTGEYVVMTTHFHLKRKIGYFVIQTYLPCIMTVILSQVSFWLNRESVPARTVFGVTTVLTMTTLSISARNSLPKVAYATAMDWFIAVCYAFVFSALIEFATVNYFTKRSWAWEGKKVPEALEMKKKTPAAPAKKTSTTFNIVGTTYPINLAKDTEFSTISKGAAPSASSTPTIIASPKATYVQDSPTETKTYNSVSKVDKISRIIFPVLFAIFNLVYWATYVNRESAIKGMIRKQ
Nature of the data set: Inhibition of [3H]Ro15-1788 binding to human recombinant GABA-Aalpha3 plus beta-3-gamma-2 receptor expressed in L(tk-) cells. It is filed as cell-based.

For data set [2], the target named is GABA-A receptor; alpha-1/beta-3/gamma-2 (Homo sapiens) (UniProt P14867+P18507+P28472). Nature of the data set: Efficacy against human recombinant GABA-Aalpha1 plus beta-3-gamma-2 receptor expressed in L(tk-) cells assessed as modulation of chloride ion by whole cell patch clamp method relative to chlorodiazepoxide. The data set is classed as functional, cell-based. In general terms: The patch-clamp technique gives a direct electrical read-out from membranes.

In data set [3] the target is GABA-A receptor; alpha-3/beta-3/gamma-2 (Homo sapiens) (UniProt P18507+P28472+P34903). Nature of the data set: Efficacy against human recombinant GABA-Aalpha3 plus beta-3-gamma-2 receptor expressed in L(tk-) cells assessed as modulation of chloride ion by whole cell patch clamp method relative to chlorodiazepoxide. The data set is classed as functional, cell-based.
Data set [4] addresses T2, GABA-A receptor; alpha-1/beta-3/gamma-2 (Homo sapiens, UniProt P14867+P18507+P28472).
T2 sequence (P14867 whole entry): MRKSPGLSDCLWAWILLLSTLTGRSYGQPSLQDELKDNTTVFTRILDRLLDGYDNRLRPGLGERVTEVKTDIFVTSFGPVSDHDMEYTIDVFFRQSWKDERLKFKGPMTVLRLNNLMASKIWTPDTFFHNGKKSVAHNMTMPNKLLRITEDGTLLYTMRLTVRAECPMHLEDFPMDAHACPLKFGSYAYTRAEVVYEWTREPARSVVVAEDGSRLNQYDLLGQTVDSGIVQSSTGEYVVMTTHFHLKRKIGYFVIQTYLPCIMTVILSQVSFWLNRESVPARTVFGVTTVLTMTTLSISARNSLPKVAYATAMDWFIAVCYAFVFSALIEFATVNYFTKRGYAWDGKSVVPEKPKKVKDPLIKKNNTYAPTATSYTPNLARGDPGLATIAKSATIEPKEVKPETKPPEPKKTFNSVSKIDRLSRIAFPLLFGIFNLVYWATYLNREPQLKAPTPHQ
T2 sequence (P18507 whole entry): T1 sequence (P18507 whole entry)
T2 sequence (P28472 whole entry): T1 sequence (P28472 whole entry)
Nature of the data set: Inhibition of [3H]Ro15-1788 binding to human recombinant GABA-Aalpha1 plus beta-3-gamma-2 receptor expressed in L(tk-) cells. The data set is classed as cell-based.

The nature of data set [5]: Oral bioavailability in rat. It is filed as ADME, organism-based. As to conditions: in vivo.
Data set [6] relates to Rattus norvegicus. Nature of the data set: Receptor occupancy in rat, po. It is filed as functional.

As to `Cn1ncnc1COc1nn2c(-c3ccccc3F)nncc2c1-c1cncnc1`, the Ki in data set [1] is greater than 33 nM.
On the same count and under the same terms, the figure for `Cn1ncnc1COc1nn2c(-c3ccccc3F)nncc2c1-c1cc(F)cc(F)c1` is greater than 33 nM.
As to `Cn1ncnc1COc1nn2c(-c3ccccc3F)nncc2c1-c1c(F)cccc1F`, the Efficacy in data set [2] was 0.23; in data set [3], 0.45. The Ki in data set [1] was 0.55 nM.
Consider `Cc1ccccc1-c1c(OCc2ncnn2C)nn2c(-c3ccccc3F)nncc12`, for which the inhibitory constant (Ki) in data set [1] worked out at 23 nM.
In the case of `Cn1ncnc1COc1nn2c(C3CC3)nncc2c1-c1ccccc1F`, the Efficacy in data set [2] was -0.08; in data set [3] it was -0.01. Moreover, in data set [1], the Ki was determined as 0.36 nM.
In the same order, the values of `Cn1ncnc1COc1nn2c(-c3ccccc3F)nncc2c1-c1cccc(N)c1` are 0.42, 0.38 and 14 nM.
Turning to `Cn1ncnc1COc1nn2c(-c3ccccc3Cl)nncc2c1-c1ccccc1F`, the figures for the Efficacy in data set [2] and in data set [3] were -0.02 and 0.02, respectively. Also, in data set [1], the Ki was 21 nM.
In the same order, the values of `Cn1ncnc1COc1nn2c(-c3c(F)cccc3F)nncc2c1-c1ccccc1F` are 0.29, 0.55 and 0.52 nM.
Turning to `Cn1ncnc1COc1nn2c(-c3cccc(F)c3)nncc2c1-c1ccccc1F`, the Efficacy in data set [2] worked out at 0.38; in data set [3], 0.57. The Ki in data set [1] came out at 1.2 nM.
For the compound `Cn1ncnc1COc1nn2c(-c3ccccc3F)nncc2c1-c1ccccc1C(F)(F)F`, the Ki in data set [1] is greater than 33 nM.
For `Cn1ncnc1COc1nn2c(-c3ccccc3F)nncc2c1-c1cccc(Cl)c1`, the Efficacy in data set [2] turned out to be 0.35; in data set [3], 0.45. For the same compound, the Ki in data set [1] came to 1.1 nM.
In the same order, the values of `Cn1ncnc1COc1nn2c(-c3ccccc3F)nncc2c1-c1cccc(C#N)c1` are 0.35, 0.28 and 1.6 nM.
Turning to `Cn1ncnc1COc1nn2c(-c3ccccc3F)nncc2c1-c1cccc(C(F)(F)F)c1`, the Efficacy was 0.3 in data set [2] and 0.46 in data set [3]. Moreover, in data set [1], the Ki is 0.54 nM.
In the same order, the values of `Cn1ncnc1COc1nn2c(-c3ccccc3F)nncc2c1-c1cccc(CO)c1` are 0.5, 0.5 and 6.6 nM.
In the same order, the values of `Cn1ncnc1COc1nn2c(-c3ccccc3F)nncc2c1-c1cc(F)ccc1F` are 0.29, 0.46 and 0.2 nM.
Take `Cn1ncnc1COc1nn2c(-c3c(F)ccc(F)c3F)nncc2c1-c1ccccc1F`: the Efficacy was 0.45 in data set [2] and 0.55 in data set [3]. Moreover, the Ki in data set [1] was determined as 2.7 nM.
Consider `Cn1ncnc1COc1nn2c(-c3ccc(F)cc3)nncc2c1-c1ccccc1F`, for which the Efficacy in data set [2] came out at 0.36; in data set [3], 0.6. The Ki in data set [1] came to 0.94 nM.
The like results for `Cn1ncnc1COc1nn2c(-c3ccco3)nncc2c1-c1ccccc1F` were, in that order, 0.01, 0.19 and 0.85 nM.
With `Cn1ncnc1COc1nn2c(-c3ccccc3F)nncc2c1-c1ccccc1`, the results for the Ki in data set [4] and in data set [1] were 0.39 nM and 0.77 nM, respectively. Besides, the Efficacy in data set [2] came to 0.18; in data set [3] it was 0.44.
As to `Cn1ncnc1COc1nn2c(-c3ccccc3F)nncc2c1-c1cccc(F)c1`, the figures for the Efficacy in data set [2] and in data set [3] were 0.23 and 0.46, respectively. Also, the Ki in data set [1] came out at 0.28 nM.
The like results for `Cn1ncnc1COc1nn2c(-c3ccoc3)nncc2c1-c1ccccc1F` were, in that order, 0.07, -0.12 and 0.61 nM.
On to `Cn1ncnc1COc1nn2c(-c3ccccc3F)nncc2c1-c1ccncc1`, for which the figures for the Efficacy in data set [2] and in data set [3] were 0.1 and 0.19, respectively. Also, the Ki in data set [1] stood at 0.14 nM.
The like results for `Cn1ncnc1COc1nn2c(-c3ccccc3F)nncc2c1-c1ccco1` were, in that order, -0.09, 0.16 and 0.11 nM.
As to `Cn1ncnc1COc1nn2c(-c3ccccc3F)nncc2c1-c1ccccc1Cl`, the Efficacy in data set [2] and in data set [3] was 0.32 in each case. For the same compound, the Ki in data set [1] turned out to be 8.7 nM.
Turning to `Cn1ncnc1COc1nn2c(-c3ccccc3F)nncc2c1-c1ccccn1`, the Efficacy worked out at 0.45 in data set [2] and 0.56 in data set [3]. In addition, the Ki in data set [1] was 1.4 nM.
Consider `Cn1ncnc1COc1nn2c(-c3cccs3)nncc2c1-c1ccccc1`, for which the values for the Efficacy in data set [2] and in data set [3] were -0.03 and 0.19, respectively. In data set [1], the Ki came to 1.6 nM.
The like results for `Cn1ncnc1COc1nn2c(-c3ccccc3F)nncc2c1-c1cccnc1` were, in that order, 0.35, 0.52 and 0.98 nM.
The like results for `Cn1ncnc1COc1nn2c(-c3ccccc3F)nncc2c1-c1cccc(F)c1F` were, in that order, 0.27, 0.4 and 1.5 nM.
For the compound `Cn1ncnc1COc1nn2c(-c3cccnc3)nncc2c1-c1ccccc1F`, the Efficacy in data set [2] was determined as 0.15; in data set [3] it was 0.16. Besides, in data set [1], the Ki is 1.1 nM.
The like results for `Cn1ncnc1COc1nn2c(-c3ccccc3F)nncc2c1-c1cccs1` were, in that order, 0.01, 0.12 and 0.1 nM.
The like results for `Cn1ncnc1COc1nn2c(-c3ccc(F)cc3F)nncc2c1-c1ccccc1F` were, in that order, 0.42, 0.78 and 2 nM.
In the same order, the values of `Cn1ncnc1COc1nn2c(-c3ccccc3F)nncc2c1-c1ccc(F)cc1` are 0.09, 0.31 and 6.3 nM.
In the case of `Cn1ncnc1COc1nn2c(-[n+]3ccncc3)nncc2c1-c1ccccc1F`, the Efficacy in data set [2] was determined as 0.03; in data set [3], 0.18. Moreover, the Ki in data set [1] came out at 2.7 nM.
Consider `Cn1ncnc1COc1nn2c(-c3ccccc3F)nncc2c1-c1ccccc1F`, for which the Efficacy in data set [2] worked out at 0.22; in data set [3], 0.4. Also, the Ki in data set [1] worked out at 0.45 nM.
For `Cn1ncnc1COc1nn2c(-c3ccccc3F)nncc2c1-c1ccsc1`, the Efficacy in data set [2] is -0.02; in data set [3], 0.21. In data set [5], the bioavailability was determined as 32%. For the same compound, in data set [1], the Ki worked out at 0.1 nM. In data set [6], this compound came in with an Activity of 0.54 mg/kg.
For `Cn1ncnc1COc1nn2c(-c3cc(F)ccc3F)nncc2c1-c1ccccc1F`, the Efficacy in data set [2] and in data set [3] was 0.52 in each case. Also, the Ki in data set [1] is 1.3 nM.
As to `Cn1ncnc1COc1nn2c(-c3c(F)cc(F)cc3F)nncc2c1-c1ccccc1F`, the Efficacy in data set [2] came to 0.37; in data set [3], 0.59. For the same compound, in data set [1], the Ki stood at 2.6 nM.

One may read the Ki as a measure of affinity in units of concentration, obtained from inhibition or displacement. By bioavailability is commonly meant the share of a dose that reaches the circulation, judged against a reference dose that is usually intravenous. The low end stands for little systemic uptake, the high end for much systemic uptake.
